{"source": "ChEMBL document CHEMBL4619717", "about": "“Novel quinolin-4(1H)-one derivatives as multi-effective aldose reductase inhibitors for treatment of diabetic complications: Synthesis, biological evaluation, and molecular modeling studies” (Bioorg Med Chem Lett, 2020)", "key": {"[1]": {"assay": "Antioxidant activity assessed as DPPH radical scavenging activity at 100 uM relative to control", "assay_type": "functional"}, "[2]": {"biological_target": "T1, AKR1A1 (aldo-keto reductase family 1 member A1) (Rattus norvegicus, UniProt P51635)", "T1 sequence (P51635 whole entry)": "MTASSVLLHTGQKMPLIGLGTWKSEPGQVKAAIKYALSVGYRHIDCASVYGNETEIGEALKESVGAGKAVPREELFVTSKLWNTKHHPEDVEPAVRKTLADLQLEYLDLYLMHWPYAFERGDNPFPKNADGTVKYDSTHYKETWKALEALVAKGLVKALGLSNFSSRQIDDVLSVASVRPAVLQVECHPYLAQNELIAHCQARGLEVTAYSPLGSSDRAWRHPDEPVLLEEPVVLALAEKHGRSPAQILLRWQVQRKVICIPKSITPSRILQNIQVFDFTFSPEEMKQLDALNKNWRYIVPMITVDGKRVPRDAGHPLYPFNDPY", "assay": "Inhibition of AKR1A1 in rat kidney at 10 uM relative to control"}, "[3]": {"biological_target": "Aldo-keto reductase family 1 member B1 (Rattus norvegicus, UniProt P07943)", "assay": "Inhibition of AKR1B1 in rat lenses"}, "[4]": {"assay": "n-octanol/aqueous buffer distribution coefficient, logD of compound at pH 7.4 by shake flask assay based HPLC-MS analysis", "assay_type": "physicochemical"}, "[5]": {"assay": "Antioxidant activity assessed as DPPH radical scavenging activity at 10 uM relative to control", "assay_type": "functional"}, "[6]": {"assay": "Antioxidant activity assessed as DPPH radical scavenging activity at 50 uM relative to control", "assay_type": "functional"}}, "data": [{"molecule": "O=C(NO)c1cn(Cc2ccc(Br)cc2)c2ccccc2c1=O", "values": [{"measurement": "Activity", "setting": "[1]", "value": 27.6, "unit": "%"}, {"measurement": "inhibition at 10 µM", "setting": "[2]", "value": 17.6, "unit": "%"}, {"measurement": "IC50", "setting": "[3]", "value": 2.49, "unit": "µM"}]}, {"molecule": "CONC(=O)c1cn(Cc2ccccc2)c2ccccc2c1=O", "values": [{"measurement": "Activity", "setting": "[1]", "value": 25.2, "unit": "%"}, {"measurement": "inhibition at 10 µM", "setting": "[2]", "value": 5.1, "unit": "%"}, {"measurement": "IC50", "setting": "[3]", "value": 12.8, "unit": "µM"}, {"measurement": "logD", "setting": "[4]", "value": 1.19}]}, {"molecule": "COc1ccc(Cn2cc(C(=O)O)c(=O)c3ccccc32)cc1OC", "values": [{"measurement": "Activity", "setting": "[1]", "value": 32.2, "unit": "%"}, {"measurement": "inhibition at 10 µM", "setting": "[2]", "value": 24.8, "unit": "%"}, {"measurement": "IC50", "setting": "[3]", "value": 10.6, "unit": "µM"}]}, {"molecule": "O=C(O)c1cn(Cc2ccc(Cl)cc2)c2ccccc2c1=O", "values": [{"measurement": "Activity", "setting": "[1]", "value": 28.7, "unit": "%"}, {"measurement": "inhibition at 10 µM", "setting": "[2]", "value": 18.3, "unit": "%"}, {"measurement": "IC50", "setting": "[3]", "value": 0.321, "unit": "µM"}]}, {"molecule": "O=C(O)c1cn(Cc2ccc(O)c(O)c2)c2ccccc2c1=O", "values": [{"measurement": "Activity", "setting": "[5]", "value": 44.9, "unit": "%"}, {"measurement": "Activity", "setting": "[1]", "value": 87.1, "unit": "%"}, {"measurement": "inhibition at 10 µM", "setting": "[2]", "value": 38.6, "unit": "%"}, {"measurement": "IC50", "setting": "[3]", "value": 0.251, "unit": "µM"}, {"measurement": "Activity", "setting": "[6]", "value": 61.9, "unit": "%"}]}, {"molecule": "CS(=O)(=O)NC(=O)c1cn(Cc2cc(O)cc(O)c2)c2ccccc2c1=O", "values": [{"measurement": "Activity", "setting": "[5]", "value": 33.6, "unit": "%"}, {"measurement": "Activity", "setting": "[1]", "value": 79.4, "unit": "%"}, {"measurement": "inhibition at 10 µM", "setting": "[2]", "value": 24.7, "unit": "%"}, {"measurement": "IC50", "setting": "[3]", "value": 0.112, "unit": "µM"}, {"measurement": "Activity", "setting": "[6]", "value": 64.7, "unit": "%"}]}, {"molecule": "O=C(O)c1cn(Cc2ccc(O)cc2)c2ccccc2c1=O", "values": [{"measurement": "Activity", "setting": "[5]", "value": 14.6, "unit": "%"}, {"measurement": "Activity", "setting": "[1]", "value": 62.7, "unit": "%"}, {"measurement": "inhibition at 10 µM", "setting": "[2]", "value": 37.5, "unit": "%"}, {"measurement": "IC50", "setting": "[3]", "value": 0.098, "unit": "µM"}, {"measurement": "Activity", "setting": "[6]", "value": 30.4, "unit": "%"}]}, {"molecule": "O=C(O)c1cn(Cc2ccc(F)cc2)c2ccccc2c1=O", "values": [{"measurement": "Activity", "setting": "[1]", "value": 21.4, "unit": "%"}, {"measurement": "inhibition at 10 µM", "setting": "[2]", "value": 30.2, "unit": "%"}, {"measurement": "IC50", "setting": "[3]", "value": 0.154, "unit": "µM"}]}, {"molecule": "O=C(NO)c1cn(Cc2cc(O)cc(O)c2)c2ccccc2c1=O", "values": [{"measurement": "Activity", "setting": "[5]", "value": 57.8, "unit": "%"}, {"measurement": "Activity", "setting": "[1]", "value": 91, "unit": "%"}, {"measurement": "inhibition at 10 µM", "setting": "[2]", "value": 27.4, "unit": "%"}, {"measurement": "IC50", "setting": "[3]", "value": 0.065, "unit": "µM"}, {"measurement": "Activity", "setting": "[6]", "value": 72.4, "unit": "%"}, {"measurement": "logD", "setting": "[4]", "value": 1.32}]}, {"molecule": "Cc1c(C)c2c(c(C)c1O)CCC(C)(C(=O)O)O2", "note": "(stereo not drawn)", "values": [{"measurement": "Activity", "setting": "[5]", "value": 77.2, "unit": "%"}, {"measurement": "Activity", "setting": "[1]", "value": 94.2, "unit": "%"}, {"measurement": "Activity", "setting": "[6]", "value": 84.1, "unit": "%"}]}, {"molecule": "O=C(O)c1cn(Cc2ccc(Br)cc2)c2ccccc2c1=O", "values": [{"measurement": "Activity", "setting": "[1]", "value": 25.4, "unit": "%"}, {"measurement": "inhibition at 10 µM", "setting": "[2]", "value": 20.1, "unit": "%"}, {"measurement": "IC50", "setting": "[3]", "value": 1.53, "unit": "µM"}]}, {"molecule": "O=C(O)c1cn(Cc2ccccc2)c2ccccc2c1=O", "values": [{"measurement": "Activity", "setting": "[1]", "value": 20.3, "unit": "%"}, {"measurement": "inhibition at 10 µM", "setting": "[2]", "value": 5.8, "unit": "%"}, {"measurement": "IC50", "setting": "[3]", "value": 11, "unit": "µM"}, {"measurement": "logD", "setting": "[4]", "value": 0.82}]}, {"molecule": "CC(/C=C1\\SC(=S)N(CC(=O)O)C1=O)=C\\c1ccccc1", "values": [{"measurement": "inhibition at 10 µM", "setting": "[2]", "value": 43.1, "unit": "%"}]}, {"molecule": "CS(=O)(=O)NC(=O)c1cn(Cc2ccccc2)c2ccccc2c1=O", "values": [{"measurement": "Activity", "setting": "[1]", "value": 28.7, "unit": "%"}, {"measurement": "inhibition at 10 µM", "setting": "[2]", "value": 7.9, "unit": "%"}, {"measurement": "IC50", "setting": "[3]", "value": 15, "unit": "µM"}, {"measurement": "logD", "setting": "[4]", "value": 0.53}]}, {"molecule": "COc1ccc(Cn2cc(C(=O)NO)c(=O)c3ccccc32)cc1", "values": [{"measurement": "Activity", "setting": "[1]", "value": 34.1, "unit": "%"}, {"measurement": "inhibition at 10 µM", "setting": "[2]", "value": 7.6, "unit": "%"}, {"measurement": "IC50", "setting": "[3]", "value": 12.5, "unit": "µM"}]}, {"molecule": "O=C(NO)c1cn(Cc2ccc(Cl)cc2)c2ccccc2c1=O", "values": [{"measurement": "Activity", "setting": "[1]", "value": 31.7, "unit": "%"}, {"measurement": "inhibition at 10 µM", "setting": "[2]", "value": 26.5, "unit": "%"}, {"measurement": "IC50", "setting": "[3]", "value": 0.626, "unit": "µM"}]}, {"molecule": "CONC(=O)c1cn(Cc2cc(O)cc(O)c2)c2ccccc2c1=O", "values": [{"measurement": "Activity", "setting": "[5]", "value": 42.7, "unit": "%"}, {"measurement": "Activity", "setting": "[1]", "value": 88.7, "unit": "%"}, {"measurement": "inhibition at 10 µM", "setting": "[2]", "value": 21.7, "unit": "%"}, {"measurement": "IC50", "setting": "[3]", "value": 0.689, "unit": "µM"}, {"measurement": "Activity", "setting": "[6]", "value": 55.8, "unit": "%"}, {"measurement": "logD", "setting": "[4]", "value": 0.73}]}, {"molecule": "COc1cc(Cn2cc(C(=O)NO)c(=O)c3ccccc32)cc(OC)c1", "values": [{"measurement": "Activity", "setting": "[1]", "value": 41.3, "unit": "%"}, {"measurement": "inhibition at 10 µM", "setting": "[2]", "value": 17.2, "unit": "%"}, {"measurement": "IC50", "setting": "[3]", "value": 15.6, "unit": "µM"}]}, {"molecule": "COc1cc(Cn2cc(C(=O)O)c(=O)c3ccccc32)cc(OC)c1", "values": [{"measurement": "Activity", "setting": "[1]", "value": 47.6, "unit": "%"}, {"measurement": "inhibition at 10 µM", "setting": "[2]", "value": 30.1, "unit": "%"}, {"measurement": "IC50", "setting": "[3]", "value": 9.87, "unit": "µM"}]}, {"molecule": "O=C(NO)c1cn(Cc2ccc(O)c(O)c2)c2ccccc2c1=O", "values": [{"measurement": "Activity", "setting": "[5]", "value": 51.1, "unit": "%"}, {"measurement": "Activity", "setting": "[1]", "value": 88.1, "unit": "%"}, {"measurement": "inhibition at 10 µM", "setting": "[2]", "value": 25.4, "unit": "%"}, {"measurement": "IC50", "setting": "[3]", "value": 0.287, "unit": "µM"}, {"measurement": "Activity", "setting": "[6]", "value": 65.1, "unit": "%"}]}, {"molecule": "COc1ccc(Cn2cc(C(=O)NO)c(=O)c3ccccc32)cc1OC", "values": [{"measurement": "Activity", "setting": "[1]", "value": 39.1, "unit": "%"}, {"measurement": "inhibition at 10 µM", "setting": "[2]", "value": 10.5, "unit": "%"}, {"measurement": "IC50", "setting": "[3]", "value": 13.6, "unit": "µM"}]}, {"molecule": "O=C(NO)c1cn(Cc2ccc(F)cc2)c2ccccc2c1=O", "values": [{"measurement": "Activity", "setting": "[1]", "value": 32.1, "unit": "%"}, {"measurement": "inhibition at 10 µM", "setting": "[2]", "value": 24.1, "unit": "%"}, {"measurement": "IC50", "setting": "[3]", "value": 0.237, "unit": "µM"}]}, {"molecule": "O=C(NO)c1cn(Cc2ccccc2)c2ccccc2c1=O", "values": [{"measurement": "Activity", "setting": "[1]", "value": 27.1, "unit": "%"}, {"measurement": "inhibition at 10 µM", "setting": "[2]", "value": 7.1, "unit": "%"}, {"measurement": "IC50", "setting": "[3]", "value": 12.6, "unit": "µM"}, {"measurement": "logD", "setting": "[4]", "value": 1.53}]}, {"molecule": "O=C(NO)c1cn(Cc2ccc(O)cc2)c2ccccc2c1=O", "values": [{"measurement": "Activity", "setting": "[5]", "value": 32.3, "unit": "%"}, {"measurement": "Activity", "setting": "[1]", "value": 74.9, "unit": "%"}, {"measurement": "inhibition at 10 µM", "setting": "[2]", "value": 34.6, "unit": "%"}, {"measurement": "IC50", "setting": "[3]", "value": 0.107, "unit": "µM"}, {"measurement": "Activity", "setting": "[6]", "value": 51.1, "unit": "%"}]}, {"molecule": "COc1ccc(Cn2cc(C(=O)O)c(=O)c3ccccc32)cc1", "values": [{"measurement": "Activity", "setting": "[1]", "value": 30.5, "unit": "%"}, {"measurement": "IC50", "setting": "[3]", "value": 12, "unit": "µM"}]}, {"molecule": "O=C(O)c1cn(Cc2cc(O)cc(O)c2)c2ccccc2c1=O", "values": [{"measurement": "Activity", "setting": "[5]", "value": 51.7, "unit": "%"}, {"measurement": "Activity", "setting": "[1]", "value": 92.4, "unit": "%"}, {"measurement": "inhibition at 10 µM", "setting": "[2]", "value": 36.6, "unit": "%"}, {"measurement": "IC50", "setting": "[3]", "value": 0.057, "unit": "µM"}, {"measurement": "Activity", "setting": "[6]", "value": 71.1, "unit": "%"}, {"measurement": "logD", "setting": "[4]", "value": 0.57}]}]}
